Data: patent US20260053861A1, “CELL COMPOSITIONS AND METHODS OF USING THE SAME” (THE REGENTS OF THE UNIVERSITY OF CALIFORNIA, priority 2022, published 2026)
Structures can show the parent of a compound that is named as a salt. Where two headings read alike, the source gives them in different places.

Test system: hPSC-SCs
[1] = HTS viability of hPSC-SCs in the presence of 30 mM glucose, Prestwick library, Table S4

| Compound | z.score.t [1] | z.score.t |
| --- | --- | --- |
| [H]/N=C(/N)N/C(=N/[H])NCCc1ccccc1 [Phenformin hydrochloride] | 0.9109 | – |
| CN(C)[C@@H]1C(O)=C(C(=O)NCN2CCCC2)C(=O)[C@@]2(O)C(O)=C3C(=O)c4c(O)cccc4[C@@](C)(O)[C@H]3C[C@@H]12 [Rolitetracycline] | 1.601 | – |
| CC(=O)OCC(=O)[C@@]1(OC(C)=O)[C@@H](C)C[C@H]2[C@@H]3C[C@H](F)C4=CC(=O)C=C[C@]4(C)[C@@]3(F)[C@@H](O)C[C@@]21C [Diflorasone Diacetate] | 1.72 | – |
| O=S(=O)(O)c1cc(O)ccc1O [Ethamsylate] | −0.4549 | – |
| O=c1[nH]c2ccccc2n1CCCN1CCC(n2c(=O)[nH]c3cc(Cl)ccc32)CC1 [Domperidone] | 0.006455 | – |
| C[C@]12CCC(=O)C=C1CC[C@@H]1[C@@H]2[C@@H](O)C[C@@]2(C)[C@H]1CC[C@]2(O)C(=O)CO [Hydrocortisone base] | 1.76 | – |
| COc1ccc2c(c1)C(=O)N(CCc1ccc(S(=O)(=O)NC(=O)NC3CCCCC3)cc1)C(=O)C2(C)C [Gliquidone] | 2.369 | – |
| CO[C@@]1(NC(=O)CSCC#N)C(=O)N2C(C(=O)O)=C(CSc3nnnn3C)CS[C@@H]21 [Cefmetazole sodium salt] | 0.1916 | – |
| C=C(C)[C@@H]1CC[C@]2(CO)CC[C@]3(C)[C@H](CC[C@@H]4[C@@]5(C)CC[C@H](O)C(C)(C)[C@@H]5CC[C@]43C)[C@@H]12 [Betulin] | −1.025 | – |
| Cc1cccc(Nc2ccccc2C(=O)O)c1C [Mefenamic acid] | 1.751 | – |
| Cl.O=c1[nH]oc2c1CCNC2 [THIP Hydrochloride] | – | 0.9162 |
| Fc1ccc(C(c2ccc(F)cc2)N2CCN(C/C=C/c3ccccc3)CC2)cc1 [Flunarizine dihydrochloride] | −1.898 | – |
| NS(=O)(=O)c1cc(C(=O)O)cc(N2CCCC2)c1Oc1ccccc1 [Piretanide] | −0.9376 | – |
| Cl.OC1CCCCC1N1CCC(c2ccccc2)CC1 (stereo not drawn) [L(−)-vesamicol hydrochloride] | – | 0.6964 |
| CC(=O)N[C@@H](CC(=O)N[C@@H](CCC(=O)O)C(=O)O)C(=O)O [Spaglumic acid] | 2.046 | – |
| CN(C)CCC(c1ccc(Cl)cc1)c1ccccn1 (stereo not shown) [Chlorpheniramine maleate] | 0.5452 | – |
| CO/N=C(\C(=O)N[C@@H]1C(=O)N2C(C(=O)O)=C(COC(N)=O)CS[C@H]12)c1ccco1 [Cefuroxime sodium salt] | −0.8132 | – |
| NC(=O)CN1CCCC1=O [Piracetam] | 1.595 | – |
| CCCCc1ccc(C(=O)O)nc1 [Fusaric acid] | – | 1.345 |
| O.O=C(O)[C@@H]1[C@H]2C[C@H]3c4[nH]c5ccccc5c4CCN3C[C@@H]2CC[C@@H]1O [Yohimbinic acid monohydrate] | – | −0.2065 |
| CC1=NCCc2c1[nH]c1cc(O)ccc21.Cl.O.O [Harmalol hydrochloride dihydrate] | −0.7953 | – |
| Cc1ncc(C[n+]2csc(CCO)c2C)c(N)n1 [Thiamine hydrochloride] | −0.865 | – |
| (S)-(−)-Atenolol | 1.606 | – |
| CCCCCCCCCCCCCCCC[N+](C)(C)CCN(Cc1ccc(OC)cc1)c1ncccn1 [Thonzonium bromide] | −1.884 | – |
| CC/C(=C(\c1ccccc1)c1ccc(OCCN(C)C)cc1)c1ccccc1 [Tamoxifen citrate] | −1.827 | – |
| CCCN1C[C@H](CSC)C[C@@H]2c3cccc4[nH]cc(c34)C[C@H]21 [Pergolide mesylate] | 0.1298 | – |
| CN1CCCCC1CCN1c2ccccc2Sc2ccc([S+](C)[O-])cc21 (stereo not shown) [Mesoridazine besylate] | 0.2816 | – |
| CC(C)NCC(O)COc1ccc(CCOCC2CC2)cc1 (stereo not shown) [Betaxolol hydrochloride] | −0.5337 | – |

| Compound | z.score.t [1] | z.score.t |
| --- | --- | --- |
| CCn1cc(C(=O)O)c(=O)c2cnc(N3CCNCC3)nc21 [Pipemidic acid] | 0.4318 | – |
| CC1Cc2ccccc2N1NC(=O)c1ccc(Cl)c(S(N)(=O)=O)c1 (stereo not shown) [Indapamide] | 0.02534 | – |
| Viomycin sulfate | – | −0.2329 |
| Clc1ccc(C(Cn2ccnc2)OCc2csc3c(Cl)cccc23)c(Cl)c1 (stereo not shown) [Sertaconazole nitrate] | −1.558 | – |
| CCOC(=O)C1=C(C)NC(C)=C(C(=O)OC)C1c1cccc([N+](=O)[O-])c1 (stereo not shown) [Nitrendipine] | 0.6177 | – |
| Nc1ccc(/N=N/c2ccccc2)c(N)n1 [Phenazopyridine hydrochloride] | 1.999 | – |
| CC(=O)O[C@H]1C[C@@]2(C)[C@@H](C[C@@H](O)[C@H]3[C@@]4(C)CC[C@@H](O)[C@@H](C)[C@@H]4CC[C@@]32C)/C1=C(\CCC=C(C)C)C(=O)O [Fusidic acid sodium salt] | 0.6203 | – |
| O=C(NCCO[N+](=O)[O-])c1cccnc1 [Nicorandil] | 0.599 | – |
| Cc1cnc(NC(=O)C2=C(O)c3ccccc3S(=O)(=O)N2C)s1 [Meloxicam] | 1.481 | – |
| CCn1cc(C(=O)O)c(=O)c2cc3c(cc21)OCO3 [Oxolinic acid] | 1.315 | – |
| COc1ccc2c3c([nH]c2c1)[C@H]1C[C@H]2[C@H](C[C@@H](O)[C@H](OC)[C@H]2C(=O)O)CN1CC3.Cl [Reserpinic acid hydrochloride] | – | −0.4278 |
| O.O=C1C(O)=C(O)C(=O)C(O)=C1O [Tetrahydroxy-1,4-quinone monohydrate] | 1.323 | – |
| CCN(CC)CCNC(=O)c1cc(S(C)(=O)=O)ccc1OC [Tiapride hydrochloride] | 0.5452 | – |
| Cc1ncc(CO)c(CO)c1O.Cl [Pyridoxine hydrochloride] | – | −0.5337 |
| OC[C@H]1O[C@@H](Oc2ccc(O)cc2)[C@H](O)[C@@H](O)[C@@H]1O [Arbutin] | −0.2611 | – |
| CC1(C)[C@@H](OC(=O)CCC(=O)O)CC[C@]2(C)[C@H]3C(=O)C=C4[C@@H]5C[C@@](C)(C(=O)O)CC[C@]5(C)CC[C@@]4(C)[C@]3(C)CC[C@@H]12 [Carbenoxolone disodium salt] | 1.163 | – |
| CC(C)(CO)[C@@H](O)C(=O)NCCC(=O)O [Pantothenic acid calcium salt monohydrate] | −0.9817 | – |
| CCCCC[C@H](O)/C=C/[C@@H]1[C@@H](C/C=C\CCCC(=O)O)[C@@H](O)C[C@H]1O [Dinoprost trometamol] | 1.789 | – |
| CCCOc1ccc(C(=O)OCCN(CC)CC)cc1N [Proparacaine hydrochloride] | 0.7158 | – |
| O=C(O)c1ccccc1C(=O)Nc1ccc(S(=O)(=O)Nc2nccs2)cc1 [Phthalylsulfathiazole] | −1.317 | – |
| CCN1C[C@]2(C)CC[C@H](OC)[C@@]34C1[C@]1(OCO[C@@]15C[C@H](OC)[C@H]1C[C@]3(O)[C@@H]5[C@H]1OC)[C@@H](OC(C)=O)[C@H]24 [Deltaline] | – | 0.1693 |
| CC(N)CCCC(C)(C)O (stereo not shown) [Heptaminol hydrochloride] | 0.7415 | – |
| CCc1cccc(CC)c1NC(=O)CN(CC(=O)O)CC(=O)O [Etifenin] | 1.002 | – |
| CN1CCN(CCCN2c3ccccc3Sc3ccc(Cl)cc32)CC1 [Prochlorperazine dimaleate] | −0.7775 | – |
| CC(C)C(=O)Nc1ccc([N+](=O)[O-])c(C(F)(F)F)c1 [Flutamide] | 0.5856 | – |
| C[C@@H]1NCCc2cc(O)c(O)cc21 [Salsolinol hydrobromide] | 0.4048 | – |
| Clc1ccc2c(c1)C(N1CCNCC1)=Nc1ccccc1O2 [Amoxapine] | −0.09426 | – |
